Laboratory results: patent publication US20230286995A1, “METABOLICALLY STABLE PYRIMIDINYL DIHYDROQUINOXALINONES AS TUBULIN POLYMERIZATION INHIBITORS” (UNIVERSITY OF TENNESSEE RESEARCH FOUNDATION, priority 2022, published 2023)
Where two headings read alike, the source gives them in different places.

Assays:
[1] = system: MDA-MB-231; assay: Cytotoxicity assay (MTS, 72 h); type: cell-based; conditions: Homo sapiens
[2] = system: MDA-MB-453; assay: Cytotoxicity assay (MTS, 72 h); type: cell-based, human
[3] = system: Mia PaCa-2; assay: Cytotoxicity assay (MTS, 72 h); type: cell-based; conditions: Homo sapiens
[4] = system: PANC-1; assay: Cytotoxicity assay (MTS, 72 h); type: cell-based; conditions: Homo sapiens
Method: Mia PaCa-2 and PANC-1 cells were seeded in 96-well plates at 4000 and 5000 cells per well, respectively.
Cytotoxicity Assay. […] Each experiment consisted of four replicates.

[5] = system: A375; assay: Cytotoxicity assay (MTS, 72 h);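 further: compounds tested from 0.1 nM up to 3 µM in four replicate wells, with absorbance read at 490 nm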
[6] = system: M14; assay: Cytotoxicity assay (MTS, 72 h); conditions: Homo sapiens
[7] = system: RPMI-7951; assay: Cytotoxicity assay (MTS, 72 h); type: cell-based; conditions: Homo sapiens, Table 1, read-out: IC50 (nM) Melanoma RPMI-7951
[8] = system: MDA-MB-468; assay: Cytotoxicity assay (MTS, 72 h); type: cell-based, human; conditions: Table 1, read-out: IC50 (nM) Breast MDA-MB-468
[9] = logP; type: physicochemical; conditions: Table 1; method not described
[10] = MDA-MB-231, read-out: IC50 (nM) Breast Cancer MDA-MB-231, Table 6
[11] = Homo sapiens, MDA-MB-453, Table 6, read-out: IC50 (nM) Breast Cancer MDA-MB-453
[12] = Table 6, cells printed in μM, read-out: IC50 Pancreatic cancer Mia PaCa-2
[13] = Table 6, cells printed in μM, read-out: IC50 Pancreatic cancer PANC-1
[14] = Homo sapiens, A-375, read-out: IC50 (nM) Melanoma Cancer A375, Table 6
[15] = M14, read-out: IC50 (nM) Melanoma Cancer M14
[16] = MDA-MB-231, read-out: IC50 (nM) Breast MDA-MB-231, Table 1
[17] = Homo sapiens, MDA-MB-453, Table 1, read-out: IC50 (nM) Breast MDA-MB-453
[18] = Homo sapiens, A-375, read-out: IC50 (nM) Melanoma A375, Table 1
[19] = M14, read-out: IC50 (nM) Melanoma M14
[20] = Table 6, read-out: IC50 (nM) Pancreatic cancer Mia PaCa-2
[21] = Table 6, read-out: IC50 (nM) Pancreatic cancer PANC-1
[22] = Homo sapiens, A-375, read-out: IC50 Melanoma Cancer A375, Table 6, cells printed in μM
[23] = read-out: IC50 (nM) Melanoma Cancer A375, Table 6
[24] = Table 1, read-out: IC50 (nM) Breast MDA-MB-453
[25] = MDA-MB-231, read-out: IC50 Breast Cancer MDA-MB-231, Table 6, cells printed in μM
[26] = Homo sapiens, MDA-MB-453, Table 6, cells printed in μM, read-out: IC50 Breast Cancer MDA-MB-453
[27] = M14, read-out: IC50 Melanoma Cancer M14

SMILES	IC50 [1, 10] [nM]	IC50 [2, 11] [nM]	IC50 [3, 12] [µM]	IC50 [4, 13] [µM]	IC50 [5, 14] [nM]	IC50 [6, 15] [nM]	IC50 [7] [nM]	IC50 [1, 16] [nM]	logP [9]	IC50 [5, 18] [nM]	IC50 [6, 19] [nM]	also measured
COc1ccc2c(c1)NC(=O)CN2c1nc(O)nc2c1CCC2 [Compound 12a, 4-(2-hydroxy-6,7-dihydro-5H-cyclopenta[d]pyrimidin-4-yl)-7-methoxy-3,4-dihydroquinoxalin-2(1H)-one]	1200 ± 346	688 ± 186	> 1.25	> 1.25	~646	662 ± 126						
COc1cc2c(cc1F)N(c1nc(Cl)nc3cccnc13)CC(=O)N2 [Compound 5i, 4-(2-chloropyrido[3,2-d]pyrimidin-4-yl)-6-fluoro-7-methoxy-3,4-dihydroquinoxalin-2(1H)-one]							> 1000	> 1000	2.23	> 1000	> 1000	IC50 [2, 17]: 693 ± 102 nM; IC50 ([8]; Homo sapiens, MDA-MB-468): 940 ± 300 nM
Cc1nc2c(c(-n3c(=O)[nH]c4cc(OC(F)(F)F)ccc43)n1)CCC2 [Compound 18a, 1-(2-methyl-6,7-dihydro-5H-cyclopenta[d]pyrimidin-4-yl)-5-(trifluoromethoxy)-1H-benzo[d]imidazol-2-one]	919 ± 722				238 ± 126	1080 ± 682						IC50 [3, 20]: 0.667 ± 0.652 µM; IC50 [4, 21]: 0.164 ± 0.0982 µM
COc1ccc2c(c1)NC(=O)CN2c1nc(N2CCN(C)CC2)nc2c1CCC2 [Compound 12d, 7-methoxy-4-(2-(4-methylpiperazin-1-yl)-6,7-dihydro-5H-cyclopenta[d]pyrimidin-4-yl)-3,4-dihydroquinoxalin-2(1H)-one]	1860 ± 650	416 ± 107	> 1.25	> 1.25	~543	574 ± 124						
COc1ccc2c(c1)[nH]c(=O)n2-c1nc(SC)nc2c1CCC2 [Compound 18, 5-methoxy-1-(2-(methylthio)-6,7-dihydro-5H-cyclopenta[d]pyrimidin-4-yl)-1H-benzo[d]imidazol-2(3H)-one]	1340 ± 409	2180 ± 861	> 1.25	> 1.25	1180 ± 339	1110 ± 306						
COc1ccc2c(c1)[nH]c(=O)c(=O)n2-c1nc(SC)nc2c1CCC2 [Compound 14, 6-methoxy-1-(2-(methylthio)-6,7-dihydro-5H-cyclopenta[d]pyrimidin-4-yl)quinoxaline-2,3(1H,4H)-dione]												IC50 [5, 22]: > 3000 nM
COc1ccc2c(c1)NC(=O)CN2c1nc(N2CCCC2)nc2c1CCC2 [Compound 12g, 7-methoxy-4-(2-(pyrrolidin-1-yl)-6,7-dihydro-5H-cyclopenta[d]pyrimidin-4-yl)-3,4-dihydroquinoxalin-2(1H)-one]	119 ± 20.5	98.1 ± 23.3			~82.1	84.7 ± 17.6						IC50 [3, 20]: 0.508 ± 0.0591 µM; IC50 [4, 21]: 0.213 ± 0.0476 µM; IC50 [5, 23]: 82.2 ± 12.9 nM
COc1ccc2c(c1)NC(=O)CN2c1nc(Cl)nc2ccoc12 [Compound 5j, 4-(2-chlorofuro[3,2-d]pyrimidin-4-yl)-7-methoxy-3,4-dihydroquinoxalin-2(1H)-one]							14.8 ± 3.7	5.4 ± 0.6	1.6	11.9 ± 3.2	5.6 ± 1.2	IC50 [2, 17]: 1.4 ± 0.3 nM; IC50 ([8]; Homo sapiens, MDA-MB-468): 6.4 ± 1.3 nM
COc1ccc2c(c1)NC(=O)CN2c1nc(C)nc(C)c1C [Compound 5r, 7-methoxy-4-(2,5,6-trimethylpyrimidin-4-yl)-3,4-dihydroquinoxalin-2(1H)-one]							8.9 ± 1.5	18 ± 2.7	2.97	9 ± 1	9.8 ± 1.7	IC50 [2, 24]: 4.3 ± 0.9 nM; IC50 [8]: 5.2 ± 2.2 nM
COc1ccc2c(c1)[nH]c(=O)c(=O)n2-c1nc(S(C)(=O)=O)nc2c1CCC2 [Compound 15, 6-methoxy-1-(2-(methylsulfone)-6,7-dihydro-5H-cyclopenta[d]pyrimidin-4-yl)quinoxaline-2,3(1H,4H)-dione]												IC50 [1, 25]: > 3000 nM; IC50 [2, 26]: > 3000 nM; IC50 [5, 22]: > 3000 nM; IC50 [6, 27]: > 3000 nM
COc1ccc2c(c1)NC(=O)CN2c1nc(S(C)(=O)=O)nc2c1CCC2 [Compound 11, 7-methoxy-4-(2-(methylsulfonyl)-6,7-dihydro-5H-cyclopenta[d]pyrimidin-4-yl)-3,4-dihydroquinoxalin-2(1H) one]	191 ± 32	58.8 ± 16.3	> 1.25	> 1.25	~84.9	62.2 ± 10.8						
COc1ccc2c(c1)nc(-c1ccc(OC)c(OC)c1OC)n2-c1nc(SC)nc2c1CCC2 [Compound 19, 5-methoxy-1-(2-(methylthio)-6,7-dihydro-5H-cyclopenta[d]pyrimidin-4-yl)-2-(2,3,4-trimethoxyphenyl)-1H-benzo[d]imidazole]				> 1.25								IC50 [1, 25]: > 3000 nM; IC50 [2, 26]: > 3000 nM; IC50 ([3]; Table 6, cell printed in MM, read-out: IC50 Pancreatic cancer Mia PaCa-2): > 1.25 µM; IC50 [5, 22]: > 3000 nM; IC50 [6, 27]: > 3000 nM
COc1ccc2c(c1)NC(=O)CN2c1nc(N(C)C)nc2c1CCC2 [Compound 12i, 4-(2-(dimethylamino)-6,7-dihydro-5H-cyclopenta[d]pyrimidin-4-yl)-7-methoxy-3,4-dihydroquinoxalin-2(1H)-one]	36.9 ± 6.1	16.1 ± 4.7	> 1.25	> 1.25	~22.6	21.1 ± 4.1						IC50 [5, 23]: 22 ± 4.5 nM
COc1ccc2c(c1)NC(=O)CN2c1nc(N2CCCCC2)nc2c1CCC2 [Compound 12f, 7-methoxy-4-(2-(piperidin-1-yl)-6,7-dihydro-5H-cyclopenta[d]pyrimidin-4-yl)-3,4-dihydroquinoxalin-2(1H)-one]	690 ± 147	499 ± 126	> 1.25	> 1.25	~436	601 ± 117						
COc1ccc2c(c1)NC(=O)CN2c1nc(C)nc2onc(C)c12 [Compound 5k, 4-(3,6-dimethylisoxazolo[5,4-d]pyrimidin-4-yl)-7-methoxy-3,4-dihydroquinoxalin-2(1H)-one]							7 ± 2.3	9.3 ± 1.6	2.46	14.3 ± 4.1	6.7 ± 2.2	IC50 [2, 17]: 4.6 ± 1.1 nM; IC50 ([8]; Homo sapiens, MDA-MB-468): 7.5 ± 1.6 nM
Cc1nc2c(c(N3CC(=O)Nc4cc(OC(F)(F)F)ccc43)n1)CCC2 [Compound 12o, 4-(2-methyl-6,7-dihydro-5H-cyclopenta[d]pyrimidin-4-yl)-7-(trifluoromethoxy)-3,4-dihydroquinoxalin-2(1H)-one]	75.8 ± 13.1	34.9 ± 6.4			~43.1	41.9 ± 5.6						IC50 [3, 20]: 0.0835 ± 0.0128 µM; IC50 [4, 21]: 0.0424 ± 0.0085 µM
COc1ccc2c(c1)NC(=O)CN2c1ncnc2c1CCC2 [Compound 5n, 4-(6,7-dihydro-5H-cyclopenta[d]pyrimidin-4-yl)-7-methoxy-3,4-dihydroquinoxalin-2(1H)-one]							14 ± 3.9	54 ± 9.9	2.05	13.4 ± 1.9	19.1 ± 5.3	IC50 [2, 17]: 7.3 ± 1.5 nM; IC50 ([8]; Homo sapiens, MDA-MB-468): 15.6 ± 3.8 nM
COc1ccc2c(c1)NC(=O)CN2c1nc(Cl)nc2c1CCCC2 [Compound 5o, 4-(2-chloro-5,6,7,8-tetrahydroquinazolin-4-yl)-7-methoxy-3,4-dihydroquinoxalin-2(1H)-one]							> 1000	> 1000	3.16	> 1000	> 1000	IC50 [2, 24]: 256 ± 59.5 nM; IC50 ([8]; Homo sapiens, MDA-MB-468): > 1000 nM
COc1ccc2c(c1)[nH]c(=O)c(=O)n2-c1nc(OC)nc2c1CCC2 [Compound 16, 6-methoxy-1-(2-methoxy-6,7-dihydro-5H-cyclopenta[d]pyrimidin-4-yl)quinoxaline-2,3(1H,4H)-dione]			> 1.25	> 1.25								IC50 [1, 25]: > 3000 nM; IC50 [2, 26]: > 3000 nM; IC50 [5, 22]: > 3000 nM; IC50 [6, 27]: > 3000 nM
Cc1nc2c(c(N3CC(=O)Nc4cc(O)ccc43)n1)CCC2 [Compound 12q, 7-hydroxy-4-(2-methyl-6,7-dihydro-5H-cyclopenta[d]pyrimidin-4-yl)-3,4-dihydroquinoxalin-2(1H)-one]	25.9 ± 4.9	13.5 ± 3.3			~19	21.8 ± 4.5						IC50 [3, 20]: 0.0343 ± 0.0053 µM
